Experiments:
[1] = tested on: lice hatching proteases in the egg shell washings (ESW); experiment: Gelatine substrate SDS-PAGE of egg shell washings treated with protease inhibitors; assay type: biochemical, Pediculus humanus humanus; conditions: 10 mM inhibitor; 3 hrs at 37° C.
Protocol: Within 12 hours of hatching 50 body lice eggs (Pediculus humanus humanus) were removed from the hair and placed in a 1 ml eppendorf tube. 20 μL of distilled water was added to the unhatched eggs and the preparation incubated for 30 minutes at 32° C. The 20 μL was recovered, freeze dried and stored at −70° C. A number of other samples were also collected as described. Hair samples from which unhatched lice eggs had been removed were also collected and incubated as described above. In addition, a sample of unhatched eggs and a sample of hair from which lice eggs had been removed were collected 7 days post laying (within 24 hrs of egg hatching). Both samples were washed in 10 mls of a 1% solution of sodium hypochlorite for 1 minute followed by a 5×1 minute washes in 25 mls in distilled water to remove the hypochlorite. These samples were then incubated in 20 μL of distilled water as described above. In addition, a group of 25 lice eggs that were within 24 hours of hatching, were pretreated with 1% sodium hypochlorite, washed as described above and left to hatch. Within 1-2 hours after hatching the empty egg shells were incubated in 20 μL of distilled water as described above, the washings collected from the hatched egg shells and stored at −70° C. All of the extract samples were then freeze-dried overnight. The freeze-dried samples were then resuspended in 15 μL of non-reducing SDS sample buffer, centrifuged at 10,000 g for 2 minutes and the entire 15 μL loaded on to 10% gelatine substrate SD S-PAGE gels. Gels were run at 4° C. for 10 minutes at 10 mA followed by a further 25 minutes at 15 mA per gel. They were then incubated for 2×20 minutes in a 2.5% Triton-X 100 solution followed by a three hour incubation in 0.1M Tris/HCl containing 1 mM CaCl2 pH 8.0. Activity was detected as clear areas on the gel the result of protease activity degrading the gelatine within the gel.
10% SDS-PAGE gelatine substrate gels were loaded with freeze dried egg shell washings from 100 lice eggs that had been resuspended in 50 μl of non-reducing sample buffer with samples run at 10 μl per lane. Gels were run at 4° C. for 10 minutes at 10 mA per gel followed by a further 25 minutes at 15 mA per gel. Gels were then cut into strips and each strip incubated for 2×20 minutes in a 2.5% Triton-X 100 solution containing a specific inhibitor. The inhibitors used were the serine protease inhibitor PMSF (5 mM), the metalloprotease inhibitor 1,10-phenanthroline (10 mM), the aspartic protease Pepstatin (5 μM) and the cysteine inhibitor E-64 (10 μM). The gel strips were then incubated in 0.1M Tris/HCl containing 1 mM CaCl2 pH 8 containing the different protease inhibitors for 3 hrs at 37° C., before being stained in Coomassie blue and destained as previously described.

lice eggs = experiment: Lice egg-hatch bioassay, eggs treated five days post laying; assay type: in vivo, clothing lice (Pediculus humanus humanus)
Protocol: To evaluate the potential effects of protease inhibitors on lice egg hatching it was necessary to develop a reliable in vitro bioassay. Male and female clothing lice were fed on a rabbit as previously described. […] During this period the female lice laid their eggs and attached them to the woven cloth. All lice would then be removed and the eggs permitted to incubate for the following 5 days. […] The eggs would then progress through to their final stages of development and hatch. In untreated control eggs a reliable average percentage hatch of between 85-95 percent was obtained using the in vitro egg hatch assay. […] Lice eggs were laid onto cloth as described above. […] Protease inhibitor solutions were typically prepared as stock solutions and added fresh at the appropriate concentration. Specifically stock solutions were prepared as follows: 1,10-phenanthroline (200 mM in methanol) and bestatin (5 mg/ml in methanol). In addition, the equivalent levels of the solvent were added to the non-inhibitor containing controls eggs to test for any buffer alone effects. Percentage hatch inhibition was calculated as the percentage reduction in egg hatch compared to the untreated control.

head lice eggs = experiment: Assessment of commercial lice products in the standard lice egg-hatching assay; assay type: in vivo; conditions: summary in words
Protocol: These three products were tested according to manufacturer's recommendations. Groups of eggs (24 hr old) were treated with the different products according to manufacturer's recommendations for the appropriate period of time (5-10 minutes) followed by a rinse for 1-2 minutes in 32° C. water. A positive controls (10 mM 1,10-phenanthroline) and two negative controls (no treatment and 20% Methanol) were also incorporated. Post exposure to the different products, the eggs were rinsed with warm water at 32° C. before being blotted dry on tissue paper and placed at 32° C., 70% RH and left to hatch. A second group of eggs, (48 hr old) were treated as previously described and also left to hatch. This process was repeated at 24 hr intervals on head lice eggs up to 120 hr post laying. This method of assaying inhibitors more closely mirrors the field situation where lice eggs will be at various stages of development on the head and permits the inhibitory effects to be observed on these different stages of the parasite.
These two products were tested according to manufacturer's recommendations. Groups of eggs (24 hr old) were treated with the different products according to manufacturer's recommendations for the appropriate period of time (5-10 minutes) followed by a rinse for 1-2 minutes in 32° C. water. Two negative controls (no treatment and 20% ethanol) were also incorporated. […]

[2] = tested on: Plutella xylostella eggs (Waite strain); experiment: Egg hatching of Plutella xylostella; conditions: Table 9; 10 mM; relative to control (100% MeOH)
Protocol: The egg masses were then placed in a humid box at 25 degrees until egg hatch. Control eggs were exposed to absolute methanol as described above. At day 6 post laying the eggs were assessed from the different treatments and the percentage of egg hatch determined relative to the control as shown in Table 9.
Batches of Plutella eggs that were laid on either fine cloth or parafilm were dipped in a specific inhibitor solution for between 2-10 seconds, the excess solution was drained by blotting with dry tissue paper. The egg masses were then placed in a humid box at 25 degrees until egg hatch. Control eggs were exposed to absolute methanol as described above or not treated. At day 6 post laying the eggs were assessed from the different treatments and the percentage of egg hatch determined relative to the controls as shown in Tables 10 and 11.
Batches of Plutella eggs that were laid on fine cloth were dipped in a specific inhibitor solution for approximately 2 seconds, the excess solution was drained by blotting with dry tissue paper. The egg masses were then placed in a humid box at 25 degrees until egg hatch. Control eggs were exposed to absolute methanol as described above or not treated. At day 6 post laying the eggs were assessed from the different treatments and the percentage of egg hatch determined relative to the control as shown in Table 12.
The egg masses were then placed in a humid box at 25 degrees until egg hatch. Control eggs were exposed to absolute ethanol as described above. On day 6 post laying the eggs were assessed from the different treatments and the percentage of egg hatch determined relative to the control.

[3] = tested on: Helicoverpa armigera eggs (Tatura×Toowoomba strains); experiment: Egg hatching of Helicoverpa armigera; conditions: Table 14; 10 mM; relative to control
Protocol: Several hundred Helicoverpa armigera eggs (Tatura×Toowoomba strains) were collected, that had been laid on fine mesh cloth over a 24 hour period.
Batches of Helicoverpa eggs were exposed to a specific inhibitor solution for between 2-10 seconds the excess solution drained by blotting with dry tissue paper. The egg masses were then placed in a humid box at 25 degrees until egg hatch. Control eggs were exposed to absolute methanol as described above.

c1cnc2c(c1)ccc1cccnc12 [1,10-phenanthroline]
protease activity of the ESW [1]: significant reduction in protease activity
egg hatching in lice (lice eggs; 10 mM, eggs treated 5 days post laying): significantly inhibited egg hatching
inhibition of egg hatching (lice eggs; added within 24 hours of hatching): variable inhibition
ovicidal activity across the different stages of lice egg hatching (head lice eggs): highly effective at inhibiting lice egg hatching
% Inhibition [2]: significantly inhibit egg hatching
% Inhibition [3]: able to inhibit egg hatching

From patent US20090143419A1, “METHODS AND COMPOSITIONS FOR CONTROLLING ECTOPARASITES” (HATCHTECH PTY LTD, priority 2005, published 2009)
